From PubChem BioAssay (NCI) come the findings set out here.

What all share (test): NCI tumour cell line growth inhibition, 48 h
Test [1] relates to NCI-H23 lung.
Test [2] relates to M14 melanoma.
The test system of test [3] is SK-MEL-28 melanoma.
Test [4] has as its system EKVX NSCLC.
The subject of test [5] is SW-620 colon.
Test [6] relates to SF-295 CNS.
Test [7] has as its system MCF7 breast.
The subject of test [8] is MDA-MB-231 breast.
Test [9] relates to HL-60(TB) leukemia.
Test [10] has as its system HOP-92 NSCLC.

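How tested: cells in 96-well plates exposed to compound for 48 hours at five concentrations. The concentration for 50% growth inhibition is given as GI50. TGI marks complete inhibition of growth.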

Take `COc1cccc2c1-c1c(c3ccc([N+](=O)[O-])cc3c(=O)n1CCCCl)C2=O`: the GI50 in [1] was 24.4 µM; in test [2] it was 8.57 µM; in test [3], above 50 µM; in [4] it was above 50 µM; in test [5], 0.286 µM; in test [6], 1.82 µM. For the same compound, the values for the GI50 in test [7] and in [8] were 0.0614 µM and 29.5 µM, respectively. Moreover, the TGI in test [1], in test [2], in test [3], in test [4], in test [5] and in [6] was above 50 µM in each case. Also, the TGI is 0.327 µM in [7] and above 50 µM in [8].

On to `C=CC[P+](c1ccccc1)(c1ccccc1)c1ccccc1`, for which the GI50 in test [9] was 1.58 µM; in test [2], 8.09 µM; in [3] it was 11.3 µM; in [5], 5.64 µM; in test [6] it was 4.58 µM; in [7], 2.84 µM. Further, the GI50 in test [8] is 7.61 µM. Besides, the TGI is 6.03 µM in [9]; above 100 µM in test [2]; above 100 µM in test [3]; above 100 µM in test [5]; 28.2 µM in test [6]; above 100 µM in [7]. The TGI in [8] was above 100 µM.

With `O=C(CCCN1CCOCC1)Nc1ccc(Cn2nnc3c2C(=O)c2nnn(Cc4ccc(NC(=O)CCCN5CCOCC5)cc4)c2C3=O)cc1`, the GI50 in test [9] was 1.51 µM; in test [10] it was 2.54 µM; in test [1] it was 2.33 µM; in test [2] it was 4.59 µM; in test [3], 3.93 µM; in [5], 2.85 µM. In addition, the GI50 is above 100 µM in test [6] and 1.03 µM in [7]. The TGI in [9] is 4.91 µM; in [10], 5.04 µM; in [1] it was 5.63 µM; in [2], 43.6 µM; in test [3], above 100 µM; in test [5] it was above 100 µM. Besides, the TGI is above 100 µM in test [6] and 2.77 µM in test [7].

Regarding `Cn1cc(C2=C(c3cccnc3)C(=O)NC2=O)c2ccccc21`, the GI50 in test [9] was above 25 µM; in [1] it was above 25 µM; in test [2], above 25 µM; in test [3] it was above 25 µM; in [5], above 25 µM; in test [6], 8.13 µM. Further, the GI50 was 8.45 µM in test [7] and above 23.8 µM in test [8]. The TGI in [9], in [1], in [2], in [3], in test [5] and in test [6] was above 25 µM in each case. In addition, the TGI in test [7] and in test [8] was above 25 µM in each case.

Take `CN=C(NC#N)NCCSCc1nc[nH]c1C`: the TGI in test [9], in test [10], in test [1], in test [2], in [3] and in test [5] was above 100 µM in each case. Besides, the TGI in test [6], in test [7] and in test [8] was above 100 µM in each case.

Take `C[C@@H]1CC[C@@H]2[C@@H]1[C@H](OC(=O)/C=C/c1ccccc1)[C@]1(C3CCCCC3)C[C@@H](NC(=O)CO)[C@@]2(C)O1`: the GI50 in [9] is 21.5 µM; in test [1], 18.9 µM; in test [2] it was 18.6 µM; in test [3], 16.9 µM; in [4] it was 13.5 µM; in test [5] it was 17.8 µM. In addition, the figures for the GI50 in [6], in test [7] and in test [8] were 14.9 µM, 14.4 µM and 18.9 µM, respectively. The TGI in [9] was found to be 40.4 µM; in [1] it was 38.4 µM; in [2] it was 35.6 µM; in test [3], 33 µM; in test [4], 27.5 µM; in [5], 34.1 µM. In addition, the TGI is 28.4 µM in test [6], 32.7 µM in test [7] and 35.4 µM in test [8].

Consider `C[C@]12CCc3nonc3C1CC[C@@H]1C2CC[C@]2(C)NC(=O)CCC12` (stereo not given in full), for which the TGI in test [9], in test [10], in [1], in test [2], in [3] and in test [4] was above 100 µM throughout. Further, the TGI in [5] and in [6] was above 100 µM each time.

As to `O=C1N(c2ccccc2)C(=O)C2(SC=NN2Cc2ccccc2)N1c1ccccc1` (stereo not given), the TGI in [9], in test [10], in test [1], in [2], in test [3] and in test [4] was above 100 µM in each case. Also, the TGI in [5] and in test [6] was above 100 µM each time.

`O=C(c1cc2ccccc2o1)N(Cc1ccccc1)c1ccccc1`: the TGI amounted to 40.6 µM in test [9]; 44 µM in [10]; 71.2 µM in test [1]; 38.9 µM in [2]; 87 µM in test [3]; 78.2 µM in test [4]. The TGI in test [5] is 32.4 µM; in test [6] it was above 100 µM.

Consider `CC(=O)c1c(C)n(C)c2c1nnc1ccccc12`, for which the TGI was above 100 µM in test [10]; above 100 µM in test [1]; above 100 µM in test [2]; above 100 µM in test [3]; 50.3 µM in [4]; above 100 µM in test [5]. Also, the figures for the TGI in test [6], in [7] and in [8] were above 100 µM, 86.3 µM and above 100 µM, respectively.

`CC(=O)c1cccc(NC(=O)C(=O)C(C2OC(=O)c3ccccc32)[N+](=O)[O-])c1` (stereo not given): the TGI in test [9], in [10], in test [1], in test [2], in test [3] and in test [4] was above 100 µM each time. The TGI in [5] and in test [6] was above 100 µM each time.
